The text below walks through data of patent US20110117055A1, “Methods of Treating Hepatitis C Virus with Oxoacetamide Compounds” (priority 2009, published 2011).

The test system of data set [1] is Jc1-luc virus. The experiment in a line: Synergy testing (Combination Index) in Jc1-luc system. In kind it is cell-based, HCV genotype-2a. The protocol:
Luciferase compound activity assay. Cell culture and luciferase compound assays were performed as previously described. See Wyles et al., J. Virol. 2007, 81:3005-8; Wyles et al., Antimicrob Agents Chemother. 2009, 53:2660-2; Grünberger et al., J. Infect. Dis. 2008, 197:42-5; Wyles et al., Antimicrob Agents Chemother, 2008, 52:1862-4. Briefly, Huh7.5.1 cells were seeded into 96-well plates at a density of 10,000 cells per well in 100 μl medium. After incubating overnight for attachment, Jc1-luc virus at an MOI 0.01 was added to wells with or without compounds at the specified concentrations. All conditions were run in triplicate. After 24 hours, medium was aspirated and replaced with 100 μl of complete medium containing an identical concentration of compound(s) followed by additional 48 hour incubation. The luciferase assay (Bright-Glo; Promega) was carried out according to the manufacturer's instructions. Luciferase activity was determined using a microplate luminometer (Veritas microplate luminometer; Turner Biosystems). The relative light units (RLU) for each condition were reported as the mean±the standard error of the mean for the three wells.
Synergy testing. The 50% effective concentration (EC50) of Compound 5 and other anti-HCV compounds was determined independently and used to set the range of concentrations for synergy experiments.
(§1) Data analysis. Determinations of compound interactions were quantified based on the median-effect principle described by Chou and Talalay. Chou T., Talalay P., Adv. Enzyme. Regul., 1984, 22:27-55. Combination indices (CIs) were determined using Calcusyn (Biosoft) for each experiment at the EC50, EC75, and EC90 levels. Five replicates per condition were evaluated. A CI<0.9 was considered synergistic, a CI≧0.9 and ≦[…] was considered additive, and a CI>1.1 was deemed antagonistic.

Data set [2] can be described thus: Cytotoxicity of anti-HCV compounds (CC50, Table 4). To be noted: human, Huh7.5.1 cells.
Data set [3] concerns HCV2a/2aChRluc virus. The experiment in a line: Compound 5 with ribavirin or VX950 in the HCV2a/2aChRluc system. In kind it is cell-based, HCV genotype 2a. The protocol: 100 μl of serially diluted compound solutions (100, 30, 10, 3, 1, 0.3, and 0.1 nM) was inoculated onto Huh-7 cells in a 96-well plate. Subsequently, 100 ul (TCID50, ˜0.6) of HCV2a/2aChRluc virus was added onto the cells. After co-incubation for 72 hrs, Renilla luciferase expression was determined (Renilla Luciferase Assay, Promega) and reported as relative light units (RLU).
as §1

Data set [4] has as its system SR-B1 pathway. To be noted: cited from earlier work.
Data set [5] has as its system HCV2aCh (E2:G451R) mutant virus. Description: E2:G451R mutant virus, immuno-fluorescence read-out. Type of data set: cell-based, HCV genotype 2a. The protocol: IF analysis: Following aspiration of supernatant from a 24-well plate, 1 ml of ice cold methanol was added to each well and the plate was stored overnight at −20° C. The following day, methanol was removed and the plates were air-dried at room temperature for about 30 minutes. The plate was then rinsed/rehydrated with two washes of PBS (˜5 minutes/wash). To block non-specific antibody binding, cells were incubated in blocking buffer (1% BSA, 0.2% skim milk in PBS) for 1 hour at room temperature. Primary antibody (mouse anti-HCV Core; Affinity BioReagents, MA1-080) was diluted 1:1000 in PBS+0.1% Tween-20 and incubated overnight at 4° C. on rocker (˜200 μl of antibody/well). The next day, wells were washed with PBS (three washes of 5 minutes each) and then incubated for 30 minutes at room temperature with a secondary antibody: goat anti-mouse_AlexaFluor488 (1:1000 dilution in PBS/Tween; Molecular Probes/Invitrogen #A11001). The cells were then washed with PBS three times (5 minutes each), including once with Hoechst dye (0.4 ug/ml; Molecular Probes/Invitrogen #H3570) to counterstain the nuclei of cells. Immunofluorescence staining was analyzed using 10× objective on a Zeiss fluorescent microscope.

Data set [6] concerns HCV2aChLuc (NS3:A156S). The experiment in a line: Infectivity of protease mutant virus versus wild type in the presence of compounds. In kind it is cell-based, HCV genotype 2a. The following applies: HCV2aChLuc (NS3:A156S) vs wild type HCV2aChLuc. The text has this:
Therefore, we introduced A156S mutation in the backbone of HCV2aChLuc genome and investigated the infectivity of the mutant virus in the presence of compounds.

Data set [7] relates to HCV. Description: Combination of viral entry inhibitor with IFN-α, HCVcc infection system, luciferase assay. Type of data set: cell-based. The following applies: Huh7 cells, 72 hrs. The protocol: The current standard of care for the treatment of chronic hepatitis C is the combination of pegylated IFN-α (interferon-alpha) and ribavirin. […] Huh7 cells were incubated with various concentrations of Compound 1 or interferon alone, or combinations of both for 72 hrs, and the anti-HCV activity was measured by luciferase assays. The same was experiment was performed for Compound 5.

Like-named read-outs stand apart in the source and are kept apart here. Some results are limits rather than exact numbers.

What is called CC50 is the concentration at which the toxic effect on the cells reaches its halfway point. On to `COc1c(NC(=O)C(=O)c2ccc(OCCN3CCOCC3)c3ccccc23)cc(C(C)(C)C)cc1NS(C)(=O)=O` [Compound 5, N-(5-tert-butyl-2-methoxy-3-(methylsulfonamido)phenyl)-2-(4-(2-morpholinoethoxy)naphthalen-1-yl)-2-oxoacetamide], for which the “antagonism with any compound studied” value in data set [1] is reported as “not antagonistic”. For the same molecule, in data set [1] (at 50% effective dose (ED50)), the “Combination Index (CI) with 2′-C-methyladenosine” value worked out at 1.09, the “Combination Index (CI) with BILN2061” value was found to be 0.98 and the “Combination Index (CI) with interferon-alpha” value was 1.00. Also, in data set [1] (at ED50, ED75 and ED90), the “interaction with VX1” value was “consistent synergy”. Moreover, the “interaction with all compounds tested” value in data set [1] (at ED75 and ED90) is recorded as “synergy”. In addition, the CC50 in data set [2] is greater than 100 µM. Also, the “interaction with VX-950” value in data set [3] (HCV2a/2aCHRLuc system) was “consistent synergy”. The “effect of combination with ribavirin” value in data set [3] (ribavirin 15 μM) is “no antagonistic effect”. In addition, in data set [4] (mice with a knock-out in the SR-B1 gene), the HDL levels result is given as “not”. For the same molecule, the HDL levels result in data set [4] (mice) is recorded as “raised HDL levels”. The “sensitivity of E2 mutant relative to wild-type virus, immuno-fluorescence” value in data set [5] is “more resistant”. In addition, in data set [6], the “resistance of NS3:A156S mutant virus versus wild type (inhibition of infectivity)” value is recorded as “no significant difference”. For the same molecule, in data set [7], the “effect of combination with IFN-α on inhibition of HCV infection in cell culture” value is “additive to moderate synergistic effect”.
